Assays:
Assay in all cases: β-arrestin based GPCR screen (PathHunter / GPCRmax), antagonist mode
168 GPCRs [1] = molecular target: 168 GPCRs (Homo sapiens, UniProt P07550); conditions: ADRB2, Antagonist
168 GPCRs [2] = molecular target: 168 GPCRs (Homo sapiens, UniProt P21918)
168 GPCRs [3] = molecular target: T1, 168 GPCRs (Homo sapiens, UniProt P24530); conditions: EDNRB
T1 sequence (P24530 27-442): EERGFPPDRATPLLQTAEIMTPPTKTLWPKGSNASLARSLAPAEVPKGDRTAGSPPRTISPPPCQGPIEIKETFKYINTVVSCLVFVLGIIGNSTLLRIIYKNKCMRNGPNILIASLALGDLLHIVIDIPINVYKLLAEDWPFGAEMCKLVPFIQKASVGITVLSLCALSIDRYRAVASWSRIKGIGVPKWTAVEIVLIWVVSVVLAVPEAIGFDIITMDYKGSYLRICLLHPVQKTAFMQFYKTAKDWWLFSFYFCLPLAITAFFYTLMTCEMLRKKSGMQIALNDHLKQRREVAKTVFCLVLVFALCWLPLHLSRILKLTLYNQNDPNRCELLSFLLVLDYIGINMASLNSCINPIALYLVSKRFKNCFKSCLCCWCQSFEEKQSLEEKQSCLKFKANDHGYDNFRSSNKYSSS

168 GPCRs [4] = molecular target: 168 GPCRs (Homo sapiens, UniProt P25105); conditions: PTAFR
168 GPCRs [5] = molecular target: 168 GPCRs (Homo sapiens, UniProt P30988); conditions: Antagonist
168 GPCRs [6] = molecular target: 168 GPCRs (Homo sapiens, UniProt P32249)
168 GPCRs [7] = molecular target: 168 GPCRs (Homo sapiens, UniProt P32302)
168 GPCRs [8] = molecular target: 168 GPCRs (Homo sapiens, UniProt P33032); conditions: MC5R
168 GPCRs [9] = molecular target: 168 GPCRs (Homo sapiens, UniProt P35408)
168 GPCRs [10] = molecular target: 168 GPCRs (Homo sapiens, UniProt P43116)
168 GPCRs [11] = molecular target: 168 GPCRs (Homo sapiens, UniProt P47211)
168 GPCRs [12] = molecular target: 168 GPCRs (Homo sapiens, UniProt P47901); conditions: AVPR1B, Antagonist
168 GPCRs [13] = molecular target: 168 GPCRs (Homo sapiens, UniProt P48145)
168 GPCRs [14] = molecular target: 168 GPCRs (Homo sapiens, UniProt P49146); conditions: NPY2R
168 GPCRs [15] = molecular target: 168 GPCRs (Homo sapiens, UniProt P51684); conditions: CCR6, Antagonist
168 GPCRs [16] = molecular target: 168 GPCRs (Homo sapiens, UniProt P51685); conditions: CCR8, Antagonist
168 GPCRs [17] = molecular target: 168 GPCRs (Homo sapiens, UniProt Q969F8); conditions: KISS1R
168 GPCRs [18] = molecular target: 168 GPCRs (Homo sapiens, UniProt Q96P65)
168 GPCRs [19] = molecular target: 168 GPCRs (Homo sapiens, UniProt Q9Y5N1)
Sequence of 168 GPCRs (Homo sapiens, UniProt Q9Y5N1) (Q9Y5N1 whole entry): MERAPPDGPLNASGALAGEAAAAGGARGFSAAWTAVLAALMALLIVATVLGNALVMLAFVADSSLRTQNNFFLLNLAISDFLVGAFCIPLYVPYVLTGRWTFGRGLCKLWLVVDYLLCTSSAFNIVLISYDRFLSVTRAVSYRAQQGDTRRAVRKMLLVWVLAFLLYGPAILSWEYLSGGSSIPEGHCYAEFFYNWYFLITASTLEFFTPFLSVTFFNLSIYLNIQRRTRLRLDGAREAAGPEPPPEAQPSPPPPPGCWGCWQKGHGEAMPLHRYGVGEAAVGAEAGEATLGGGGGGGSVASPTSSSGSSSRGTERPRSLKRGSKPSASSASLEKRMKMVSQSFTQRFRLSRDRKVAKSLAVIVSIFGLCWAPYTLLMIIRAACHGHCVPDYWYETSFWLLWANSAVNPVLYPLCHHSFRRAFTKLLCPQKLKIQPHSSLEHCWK

Sequence of 168 GPCRs (Homo sapiens, UniProt P30988) (P30988 25-474): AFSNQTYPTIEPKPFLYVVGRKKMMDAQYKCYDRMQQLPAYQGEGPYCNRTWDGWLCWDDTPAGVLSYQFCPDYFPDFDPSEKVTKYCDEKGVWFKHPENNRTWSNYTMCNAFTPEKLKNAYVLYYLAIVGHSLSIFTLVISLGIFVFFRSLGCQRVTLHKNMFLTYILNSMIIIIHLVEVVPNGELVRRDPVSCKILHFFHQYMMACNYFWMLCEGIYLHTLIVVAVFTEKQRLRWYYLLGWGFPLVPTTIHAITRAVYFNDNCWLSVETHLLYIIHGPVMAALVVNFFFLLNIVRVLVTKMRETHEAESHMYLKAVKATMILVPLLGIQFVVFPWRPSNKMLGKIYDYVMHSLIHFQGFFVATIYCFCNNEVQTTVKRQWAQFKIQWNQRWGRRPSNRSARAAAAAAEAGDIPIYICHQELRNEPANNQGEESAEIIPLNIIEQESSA
Sequence of 168 GPCRs (Homo sapiens, UniProt P49146) (P49146 whole entry): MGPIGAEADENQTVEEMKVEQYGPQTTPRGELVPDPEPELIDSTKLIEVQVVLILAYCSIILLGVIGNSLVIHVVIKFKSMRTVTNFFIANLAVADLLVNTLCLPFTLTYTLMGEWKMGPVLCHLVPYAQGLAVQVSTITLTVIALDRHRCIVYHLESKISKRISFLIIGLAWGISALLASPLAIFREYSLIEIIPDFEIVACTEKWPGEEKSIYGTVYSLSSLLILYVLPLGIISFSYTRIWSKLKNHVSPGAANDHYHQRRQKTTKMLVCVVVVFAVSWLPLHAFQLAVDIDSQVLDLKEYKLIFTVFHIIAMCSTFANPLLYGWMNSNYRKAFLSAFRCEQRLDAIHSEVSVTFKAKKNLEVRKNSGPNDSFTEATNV
Sequence of 168 GPCRs (Homo sapiens, UniProt P32249) (P32249 whole entry): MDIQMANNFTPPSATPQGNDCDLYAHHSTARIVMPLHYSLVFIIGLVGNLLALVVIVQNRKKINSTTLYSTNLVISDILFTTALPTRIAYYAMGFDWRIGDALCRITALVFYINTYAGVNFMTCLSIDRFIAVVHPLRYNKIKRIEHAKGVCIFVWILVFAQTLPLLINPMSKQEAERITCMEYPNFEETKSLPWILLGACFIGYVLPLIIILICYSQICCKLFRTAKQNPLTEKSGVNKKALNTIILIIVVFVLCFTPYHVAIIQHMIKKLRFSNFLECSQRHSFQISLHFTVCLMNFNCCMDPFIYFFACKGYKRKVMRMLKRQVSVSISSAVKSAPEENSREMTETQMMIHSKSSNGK
Sequence of 168 GPCRs (Homo sapiens, UniProt P07550) (P07550 whole entry): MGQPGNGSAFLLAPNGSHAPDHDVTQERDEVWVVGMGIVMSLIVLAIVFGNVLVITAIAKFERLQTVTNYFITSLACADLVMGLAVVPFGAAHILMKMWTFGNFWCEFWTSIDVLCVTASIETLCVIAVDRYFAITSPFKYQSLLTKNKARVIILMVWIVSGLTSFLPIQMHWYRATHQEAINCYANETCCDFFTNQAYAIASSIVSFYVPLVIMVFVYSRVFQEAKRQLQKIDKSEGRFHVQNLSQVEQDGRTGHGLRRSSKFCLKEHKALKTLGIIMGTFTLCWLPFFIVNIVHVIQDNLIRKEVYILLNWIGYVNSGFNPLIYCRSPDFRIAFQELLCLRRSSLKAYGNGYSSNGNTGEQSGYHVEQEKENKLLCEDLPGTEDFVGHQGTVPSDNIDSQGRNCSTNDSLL
Sequence of 168 GPCRs (Homo sapiens, UniProt P47211) (P47211 whole entry): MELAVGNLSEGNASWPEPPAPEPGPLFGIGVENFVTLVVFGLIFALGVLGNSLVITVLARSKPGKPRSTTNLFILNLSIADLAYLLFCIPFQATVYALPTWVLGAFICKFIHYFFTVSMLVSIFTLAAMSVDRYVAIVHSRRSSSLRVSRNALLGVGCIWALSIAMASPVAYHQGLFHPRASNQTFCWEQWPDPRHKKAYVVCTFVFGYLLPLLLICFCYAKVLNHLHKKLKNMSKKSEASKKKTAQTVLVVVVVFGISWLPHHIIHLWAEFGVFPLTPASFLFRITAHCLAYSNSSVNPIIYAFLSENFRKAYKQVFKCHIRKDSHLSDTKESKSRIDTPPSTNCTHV
Sequence of 168 GPCRs (Homo sapiens, UniProt P43116) (P43116 whole entry): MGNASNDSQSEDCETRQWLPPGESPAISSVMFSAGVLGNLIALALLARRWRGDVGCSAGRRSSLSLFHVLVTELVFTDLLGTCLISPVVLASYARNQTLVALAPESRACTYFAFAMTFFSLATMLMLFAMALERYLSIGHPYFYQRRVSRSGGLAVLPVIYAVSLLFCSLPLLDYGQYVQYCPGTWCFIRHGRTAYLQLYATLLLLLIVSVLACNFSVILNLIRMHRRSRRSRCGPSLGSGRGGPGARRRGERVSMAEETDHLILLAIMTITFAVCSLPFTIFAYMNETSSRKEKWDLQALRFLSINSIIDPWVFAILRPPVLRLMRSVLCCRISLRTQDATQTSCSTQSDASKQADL
Sequence of 168 GPCRs (Homo sapiens, UniProt P33032) (P33032 whole entry): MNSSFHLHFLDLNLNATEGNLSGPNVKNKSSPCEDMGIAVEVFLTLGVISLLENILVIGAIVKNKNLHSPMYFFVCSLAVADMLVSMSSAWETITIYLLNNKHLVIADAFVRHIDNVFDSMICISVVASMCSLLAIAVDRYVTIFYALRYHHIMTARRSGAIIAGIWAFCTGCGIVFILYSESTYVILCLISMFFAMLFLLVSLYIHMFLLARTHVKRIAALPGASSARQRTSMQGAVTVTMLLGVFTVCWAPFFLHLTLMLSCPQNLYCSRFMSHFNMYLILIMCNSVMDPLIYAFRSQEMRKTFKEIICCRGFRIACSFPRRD
Sequence of 168 GPCRs (Homo sapiens, UniProt P35408) (P35408 whole entry): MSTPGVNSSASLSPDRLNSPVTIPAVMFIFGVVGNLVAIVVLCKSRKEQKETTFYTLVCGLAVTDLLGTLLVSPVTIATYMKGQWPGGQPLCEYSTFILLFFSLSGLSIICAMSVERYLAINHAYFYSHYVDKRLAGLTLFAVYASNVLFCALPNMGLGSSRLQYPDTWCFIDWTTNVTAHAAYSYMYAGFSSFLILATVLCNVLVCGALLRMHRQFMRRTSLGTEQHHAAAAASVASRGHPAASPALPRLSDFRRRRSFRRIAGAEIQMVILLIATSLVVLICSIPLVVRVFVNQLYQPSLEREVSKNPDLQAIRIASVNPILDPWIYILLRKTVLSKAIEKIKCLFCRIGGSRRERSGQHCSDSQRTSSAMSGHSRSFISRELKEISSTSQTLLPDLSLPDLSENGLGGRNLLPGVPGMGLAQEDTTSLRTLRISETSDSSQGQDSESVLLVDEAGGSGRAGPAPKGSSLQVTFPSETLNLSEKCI
Sequence of 168 GPCRs (Homo sapiens, UniProt P51684) (P51684 whole entry): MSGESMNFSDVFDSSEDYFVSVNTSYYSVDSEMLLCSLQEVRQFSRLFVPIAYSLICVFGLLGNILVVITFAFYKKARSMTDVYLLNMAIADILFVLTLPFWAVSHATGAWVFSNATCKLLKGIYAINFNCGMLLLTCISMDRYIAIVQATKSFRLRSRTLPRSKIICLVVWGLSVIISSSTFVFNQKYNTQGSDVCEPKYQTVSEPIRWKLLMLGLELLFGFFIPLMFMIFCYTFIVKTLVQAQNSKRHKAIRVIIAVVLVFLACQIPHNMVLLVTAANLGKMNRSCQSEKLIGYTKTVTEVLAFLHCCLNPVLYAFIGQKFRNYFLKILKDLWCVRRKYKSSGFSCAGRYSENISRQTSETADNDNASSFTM
Sequence of 168 GPCRs (Homo sapiens, UniProt Q969F8) (Q969F8 whole entry): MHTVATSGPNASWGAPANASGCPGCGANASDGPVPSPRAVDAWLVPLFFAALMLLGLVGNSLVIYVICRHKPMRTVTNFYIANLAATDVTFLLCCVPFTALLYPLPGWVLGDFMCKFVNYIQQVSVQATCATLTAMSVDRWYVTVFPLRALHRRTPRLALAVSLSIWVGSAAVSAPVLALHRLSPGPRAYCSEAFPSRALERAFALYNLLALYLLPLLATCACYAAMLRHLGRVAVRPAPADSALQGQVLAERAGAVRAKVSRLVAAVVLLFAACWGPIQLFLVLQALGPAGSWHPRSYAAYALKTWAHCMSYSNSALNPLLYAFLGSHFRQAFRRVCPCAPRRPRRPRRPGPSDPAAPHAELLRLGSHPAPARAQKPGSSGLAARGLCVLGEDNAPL
Sequence of 168 GPCRs (Homo sapiens, UniProt P32302) (P32302 whole entry): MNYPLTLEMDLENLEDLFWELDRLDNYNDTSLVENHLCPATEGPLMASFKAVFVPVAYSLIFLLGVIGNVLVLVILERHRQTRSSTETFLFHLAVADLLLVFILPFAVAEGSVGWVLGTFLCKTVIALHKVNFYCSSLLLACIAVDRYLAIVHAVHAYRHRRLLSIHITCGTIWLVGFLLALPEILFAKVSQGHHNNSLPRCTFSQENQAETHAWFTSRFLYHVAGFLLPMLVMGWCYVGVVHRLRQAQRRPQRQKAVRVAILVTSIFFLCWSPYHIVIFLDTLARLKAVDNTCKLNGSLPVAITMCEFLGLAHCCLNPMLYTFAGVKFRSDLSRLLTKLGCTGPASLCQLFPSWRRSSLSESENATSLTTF

Structure (SMILES): CNC(C)C(=O)c1ccc2c(c1)OCO2 (stereo not drawn) [methylone, 3,4-methylenedioxy-N-methylcathinone]
- activity at 1 µM (168 GPCRs [1]; 1 uM): 18.1%
- activity at 10 µM (168 GPCRs [1]; 10 uM): 20.4%
- activity at 10 µM (168 GPCRs [2]; DRD5, Antagonist mode, 10 uM): -2.6%
- activity at 1 µM (168 GPCRs [2]; DRD5, Antagonist, 1 uM): -5.9%
- activity at 10 µM (168 GPCRs [3]; Antagonist mode, 10 uM): 10.9%
- activity at 1 µM (168 GPCRs [3]; Antagonist, 1 uM): 17.5%
- activity at 10 µM (168 GPCRs [4]; Antagonist mode, 10 uM): -6.7%
- activity at 1 µM (168 GPCRs [4]; Antagonist, 1 uM): 2%
- activity at 1 µM (168 GPCRs [5]; CALCR-RAMP2): -10.6%
- activity at 10 µM (168 GPCRs [5]; CALCR-RAMP2): -19.6%
- activity at 1 µM (168 GPCRs [5]; CALCR-RAMP3): -8.9%
- activity at 10 µM (168 GPCRs [5]; CALCR-RAMP3): 3.3%
- activity at 1 µM (168 GPCRs [5]; CALCR): 5.4%
- activity at 10 µM (168 GPCRs [5]; CALCR): -4.4%
- activity at 10 µM (168 GPCRs [6]; EBI2, Antagonist mode, 10 uM): 2.6%
- activity at 1 µM (168 GPCRs [6]; EBI2, Antagonist, 1 uM): 0.6%
- activity at 10 µM (168 GPCRs [7]; CXCR5, Antagonist mode, 10 uM): -15.1%
- activity at 1 µM (168 GPCRs [7]; CXCR5, Antagonist, 1 uM): -4.3%
- activity at 10 µM (168 GPCRs [8]; Antagonist mode, 10 uM): -6.3%
- activity at 1 µM (168 GPCRs [8]; Antagonist, 1 uM): 1.7%
- activity at 10 µM (168 GPCRs [9]; PTGER4, Antagonist mode, 10 uM): 4.3%
- activity at 1 µM (168 GPCRs [9]; PTGER4, Antagonist, 1 uM): 10.1%
- activity at 10 µM (168 GPCRs [10]; PTGER2, Antagonist mode, 10 uM): -4.4%
- activity at 1 µM (168 GPCRs [10]; PTGER2, Antagonist, 1 uM): 12.7%
- activity at 10 µM (168 GPCRs [11]; GALR1, Antagonist mode, 10 uM): 6.8%
- activity at 1 µM (168 GPCRs [11]; GALR1, Antagonist, 1 uM): 7.1%
- activity at 1 µM (168 GPCRs [12]; 1 uM): 9.8%
- activity at 10 µM (168 GPCRs [12]; 10 uM): 3.5%
- activity at 10 µM (168 GPCRs [13]; NPBWR1, Antagonist mode, 10 uM): 25.1%
- activity at 1 µM (168 GPCRs [13]; NPBWR1, Antagonist, 1 uM): 17.1%
- activity at 10 µM (168 GPCRs [14]; Antagonist mode, 10 uM): 2%
- activity at 1 µM (168 GPCRs [14]; Antagonist, 1 uM): 2.3%
- activity at 1 µM (168 GPCRs [15]; 1 uM): 9.3%
- activity at 10 µM (168 GPCRs [15]; 10 uM): -1.6%
- activity at 1 µM (168 GPCRs [16]; 1 uM): 4.7%
- activity at 10 µM (168 GPCRs [16]; 10 uM): -0.3%
- activity at 10 µM (168 GPCRs [17]; Antagonist mode, 10 uM): 14.5%
- activity at 1 µM (168 GPCRs [17]; Antagonist, 1 uM): 28.7%
- activity at 10 µM (168 GPCRs [18]; GPR103, Antagonist mode, 10 uM): 7%
- activity at 1 µM (168 GPCRs [18]; GPR103, Antagonist, 1 uM): 4.1%
- activity at 10 µM (168 GPCRs [19]; HRH3, Antagonist mode, 10 uM): 5.8%
- activity at 1 µM (168 GPCRs [19]; HRH3, Antagonist, 1 uM): 9.5%

Source: patent publication US12343326B2, “Psychoactive medicines and their use for treating psychiatric and neurological conditions and disorders” (Transcend Therapeutics, Inc., priority 2021, dated 2025)
